Assay results taken from ChEMBL document CHEMBL2021911 (Bioorg Med Chem Lett, 2012).
The source made the active and inactive calls. The rule behind the calls is not given here.

Key:
[1] = biological target: T1, Muscarinic acetylcholine receptor M1 (Homo sapiens, UniProt P11229); assay: Agonist activity at human muscarinic M1 receptor; format: functional; settings: read-out: EC50
T1 sequence (P11229 whole entry): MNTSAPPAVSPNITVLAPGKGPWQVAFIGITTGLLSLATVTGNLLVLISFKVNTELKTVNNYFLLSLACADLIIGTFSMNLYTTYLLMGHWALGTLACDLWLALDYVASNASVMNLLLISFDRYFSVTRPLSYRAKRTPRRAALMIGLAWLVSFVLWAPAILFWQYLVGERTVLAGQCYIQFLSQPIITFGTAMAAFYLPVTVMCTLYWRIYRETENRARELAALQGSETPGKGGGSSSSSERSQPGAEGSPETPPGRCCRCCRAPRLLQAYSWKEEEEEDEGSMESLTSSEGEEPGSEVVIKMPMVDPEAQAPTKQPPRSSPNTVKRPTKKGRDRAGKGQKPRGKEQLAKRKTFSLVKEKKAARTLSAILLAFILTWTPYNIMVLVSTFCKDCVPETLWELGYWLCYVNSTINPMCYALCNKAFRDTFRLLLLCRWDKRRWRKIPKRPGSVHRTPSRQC

[2] = biological target: T2, Muscarinic acetylcholine receptor M1 (Homo sapiens) (UniProt P11229); assay: Agonist activity at human muscarinic M1 receptor at 30 uM relative to acetylcholine; format: functional
T2 sequence (whole entry): T1 sequence (P11229 whole entry)

[3] = biological target: T2, Muscarinic acetylcholine receptor M1 (Homo sapiens); assay: Agonist activity at human muscarinic M1 receptor expressed in TREx293 cells assessed as increase of soluble APPalpha release at 2 uM; format: functional, cell-based; settings: HEK293
[4] = biological target: T1, Muscarinic acetylcholine receptor M1; assay: Agonist activity at human muscarinic M1 receptor by calcium mobilization assay; format: functional
[5] = biological target: T2, Muscarinic acetylcholine receptor M1 (Homo sapiens); assay: Agonist activity at human muscarinic M1 receptor at 30 uM by calcium mobilization assay relative to acetylcholine; format: functional
[6] = biological target: T3, Muscarinic acetylcholine receptor M2 (Homo sapiens, UniProt P08172); assay: Agonist activity at human muscarinic M2 receptor by calcium mobilization assay; format: functional
T3 sequence (P08172 whole entry): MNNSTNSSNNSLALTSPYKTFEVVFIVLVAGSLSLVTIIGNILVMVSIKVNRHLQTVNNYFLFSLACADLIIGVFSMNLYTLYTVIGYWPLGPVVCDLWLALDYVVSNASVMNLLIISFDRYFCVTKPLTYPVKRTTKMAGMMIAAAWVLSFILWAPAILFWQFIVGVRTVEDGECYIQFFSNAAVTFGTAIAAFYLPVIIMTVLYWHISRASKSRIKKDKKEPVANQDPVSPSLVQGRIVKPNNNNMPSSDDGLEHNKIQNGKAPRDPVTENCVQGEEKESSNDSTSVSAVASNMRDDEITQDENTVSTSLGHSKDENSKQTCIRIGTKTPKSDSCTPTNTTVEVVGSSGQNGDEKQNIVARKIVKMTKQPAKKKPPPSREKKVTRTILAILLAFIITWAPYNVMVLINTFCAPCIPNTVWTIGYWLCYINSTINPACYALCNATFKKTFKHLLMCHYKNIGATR

[7] = biological target: T4, Muscarinic acetylcholine receptor M3 (Homo sapiens, UniProt P20309); assay: Agonist activity at human muscarinic M3 receptor by calcium mobilization assay; format: functional
Target sequence in this assay (P20309 whole entry): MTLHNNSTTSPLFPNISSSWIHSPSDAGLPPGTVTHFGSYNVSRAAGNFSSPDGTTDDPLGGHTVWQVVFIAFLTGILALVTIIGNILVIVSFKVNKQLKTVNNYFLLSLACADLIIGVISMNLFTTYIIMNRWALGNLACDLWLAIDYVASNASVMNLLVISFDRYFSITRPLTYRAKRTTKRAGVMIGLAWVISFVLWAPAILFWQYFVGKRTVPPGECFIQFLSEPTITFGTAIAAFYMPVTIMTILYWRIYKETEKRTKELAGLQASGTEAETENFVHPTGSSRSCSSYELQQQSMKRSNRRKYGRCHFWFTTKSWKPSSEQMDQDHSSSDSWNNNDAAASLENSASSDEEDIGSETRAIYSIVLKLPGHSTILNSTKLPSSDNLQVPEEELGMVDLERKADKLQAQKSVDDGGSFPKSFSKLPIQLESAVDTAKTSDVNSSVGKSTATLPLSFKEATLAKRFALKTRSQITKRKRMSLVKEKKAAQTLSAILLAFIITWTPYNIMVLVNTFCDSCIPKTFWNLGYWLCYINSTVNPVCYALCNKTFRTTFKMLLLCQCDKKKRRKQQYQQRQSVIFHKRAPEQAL

[8] = biological target: T3, Muscarinic acetylcholine receptor M2; assay: Antagonist activity at human muscarinic M2 receptor by calcium mobilization assay; format: functional
[9] = biological target: T5, Muscarinic acetylcholine receptor M4 (Homo sapiens, UniProt P08173); assay: Agonist activity at human muscarinic M4 receptor by calcium mobilization assay; format: functional
T5 sequence (P08173 whole entry): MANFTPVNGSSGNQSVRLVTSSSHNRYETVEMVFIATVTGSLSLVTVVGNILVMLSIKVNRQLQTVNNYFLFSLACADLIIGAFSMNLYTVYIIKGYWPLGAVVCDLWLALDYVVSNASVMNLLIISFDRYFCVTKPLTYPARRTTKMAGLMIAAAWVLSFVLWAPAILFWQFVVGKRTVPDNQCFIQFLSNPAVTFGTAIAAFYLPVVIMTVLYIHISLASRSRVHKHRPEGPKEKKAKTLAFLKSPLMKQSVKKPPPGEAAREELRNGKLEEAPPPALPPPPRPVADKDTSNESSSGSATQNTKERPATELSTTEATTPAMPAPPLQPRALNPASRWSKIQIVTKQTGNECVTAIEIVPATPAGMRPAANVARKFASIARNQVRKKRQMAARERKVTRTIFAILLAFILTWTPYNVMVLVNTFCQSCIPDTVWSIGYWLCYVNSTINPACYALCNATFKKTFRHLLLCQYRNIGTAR

[10] = biological target: T5, Muscarinic acetylcholine receptor M4; assay: Antagonist activity at human muscarinic M4 receptor by calcium mobilization assay; format: functional
[11] = biological target: T6, Muscarinic acetylcholine receptor M5 (Homo sapiens, UniProt P08912); assay: Agonist activity at human muscarinic M5 receptor by calcium mobilization assay; format: functional
T6 sequence (P08912 whole entry): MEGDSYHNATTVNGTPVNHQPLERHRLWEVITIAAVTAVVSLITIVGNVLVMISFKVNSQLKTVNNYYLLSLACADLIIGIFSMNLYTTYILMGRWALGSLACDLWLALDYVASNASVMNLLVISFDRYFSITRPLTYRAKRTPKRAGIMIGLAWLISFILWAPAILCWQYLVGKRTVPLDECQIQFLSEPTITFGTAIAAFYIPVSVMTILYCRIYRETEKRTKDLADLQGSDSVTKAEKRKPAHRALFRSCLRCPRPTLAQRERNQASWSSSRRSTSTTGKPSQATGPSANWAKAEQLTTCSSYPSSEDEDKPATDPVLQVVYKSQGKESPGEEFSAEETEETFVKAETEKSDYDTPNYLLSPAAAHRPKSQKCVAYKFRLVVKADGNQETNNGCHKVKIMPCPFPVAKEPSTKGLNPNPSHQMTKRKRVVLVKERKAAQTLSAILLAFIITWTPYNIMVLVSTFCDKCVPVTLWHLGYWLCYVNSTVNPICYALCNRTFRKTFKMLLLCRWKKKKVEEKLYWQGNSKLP

[12] = biological target: T6, Muscarinic acetylcholine receptor M5; assay: Antagonist activity at human muscarinic M5 receptor by calcium mobilization assay; format: functional
[13] = biological target: T7, Muscarinic acetylcholine receptor M4 (Homo sapiens) (UniProt P08173); assay: Antagonist activity at human muscarinic M4 receptor assessed as remaining activity measured as percentage of maximum response generated from 80% of saturating dose of ACh at 30 uM by calcium mobilization assay; format: functional
T7 sequence (whole entry): T5 sequence (P08173 whole entry)

[14] = biological target: T8, Muscarinic acetylcholine receptor M5 (Homo sapiens) (UniProt P08912); assay: Agonist activity at human muscarinic M5 receptor at 30 uM by calcium mobilization assay relative to acetylcholine; format: functional
T8 sequence (whole entry): T6 sequence (P08912 whole entry)

[15] = biological target: T9, Muscarinic acetylcholine receptor M2 (Homo sapiens) (UniProt P08172); assay: Antagonist activity at human muscarinic M2 receptor assessed as remaining activity measured as percentage of maximum response generated from 80% of saturating dose of ACh at 30 uM by calcium mobilization assay; format: functional
T9 sequence (whole entry): T3 sequence (P08172 whole entry)

[16] = biological target: T4, Muscarinic acetylcholine receptor M3; assay: Antagonist activity at human muscarinic M3 receptor by calcium mobilization assay
Target sequence in this assay (P20309 whole entry): as the sequence (P20309 whole entry) above

[17] = biological target: T4, Muscarinic acetylcholine receptor M3; assay: Antagonist activity at human muscarinic M3 receptor assessed as remaining activity measured as percentage of maximum response generated from 80% of saturating dose of ACh at 30 uM by calcium mobilization assay; format: functional
Target sequence in this assay (P20309 whole entry, looked up): as the sequence (P20309 whole entry) above

SMILES	EC50 [1]	Activity [2]	Activity [3]	EC50 [4]	Activity [5]	EC50 [6]	EC50 [7]	IC50 [8]	EC50 [9]	IC50 [10]	EC50 [11]	IC50 [12]	IC50 ([10]; read-out: IC50)	Activity [13]	other results
CCOC(=O)N1CCC(NCCNC(=O)c2ccccc2C)CC1	1600 nM	35%	Active	2600 nM	34%	Not Active	Not Active	Not Active	Not Active	Not Active	Not Active	Not Active	–	–	–
CCOC(=O)N1C[C@H]2CC[C@@H](C1)[C@H]2NCCNC(=O)c1cccc(Cl)c1	47 nM	52%	–	96 nM	58%	Not Active	Not Active	Not Active	–	–	–	–	> 10000 nM	40%	EC50 ([11]; read-out: EC50): 4200 nM; Activity [14]: 22%
CCOC(=O)N1[C@@H]2CC[C@H]1C[C@@H](NCCNC(=O)c1ccccc1)C2	110 nM	34%	Active	–	37%	–	–	–	–	–	–	–	3100 nM	2%	IC50 ([8]; read-out: IC50): > 10000 nM; Activity [15]: 15%; IC50 [16]: > 10000 nM; Activity [17]: 13%; IC50 ([12]; read-out: IC50): 4900 nM
CCOC(=O)N1[C@@H]2CC[C@H]1C[C@H](NCCNC(=O)c1ccccc1)C2	970 nM	49%	Active	–	57%	Not Active	Not Active	Not Active	Not Active	Not Active	Not Active	Not Active	–	–	–
